Source: patent US20240140953A1, “INHIBITORS OF MENIN-MLL INTERACTION” (BIOMEA FUSION, INC., priority 2018, published 2024)
Where two headings read alike, the source gives them in different places.

Columns and labels:
MV4-11 (MLL-AF4) = assay: Proliferation study, CellTiterGlo, 4 days (Example 102), MV4-11; assay type: cell-based, human; settings: MV4-11, 4 days treatment; for IC50: CellTiterGlo; for MV4-11 (MLL-AF4) % max: maximal inhibition
Description: The objective of the study was to evaluate the ability of representative compounds of the present invention, inhibitors of Menin/MLL interaction to inhibit cell proliferation. The proliferation inhibitory effect was investigated in two human MLL-leukemia cells selected on the bases of MLL fusion protein and listed in Table 102. HL-60 cell line was used as negative control.
ATP is present in all metabolically active cells and is considered as a marker for cell viability and proliferation. The metabolic cell activity was determined using the CellTiter-Glo kit from Promega, an ATP monitoring system based on the production of luminescence by the reaction of ATP with added UltraGlo® recombinant luciferase (Kawano et al., 2016), according to the supplier's experimental recommendations.
The described assay evaluates the ability of 4 representative compounds to inhibit the cell proliferation in the human MLL-leukemia cells plus a negative control cell line.
The assay provides potency values (IC50) for each test compound at a single time point Day 4 (T4).
Seven concentrations of the compounds (2.00E-05-6.67E-06-2.22E-06-7.41E-07-2.47E-07-8.23E-08-2.74E-08M), were assessed in duplicate in an individual test occasion in all the cell lines. MI-503 (Borkin et al., 2015) was used as reference compound and was tested at the same concentrations as the NCEs. 100% of proliferation is represented by the untreated cells (0.2% DMSO). The cell growth was monitored up to 4 days in culture.
MV4-11, MOLM-13 and HL-60 cells (see Table 2) were maintained in RPMI-1640 medium (Invitrogen, Cat. n. 618700, Batch n. 1965930) supplemented with 10% of Heat Inactivated FBS (Invitrogen, Cat n. 10500, Batch n. 08Q8078K) and 1% Pen-Strep (Invitrogen, Cat. N. 15140, Batch n. 1910859) and cultured at 37° C. in a humidified incubator with 5% CO2. All the cell lines grow in suspension and the cell density was maintained in a range of 2×10^5-1×10^6 viable cells/ml. Cells were pelleted at 130 g×5 min and conditioned medium was used to dilute the cell suspension.
Test items were dissolved in glass vials at 10 mM in DMSO with purity ≥99.9% (Sigma, D8418, batch n. SHBH4245V) and stored at −20° C. in 1.5 mL Eppendorf tubes.
Serial dilutions 1 to 3 in DMSO 100% were prepared starting from a 10 mM stock solutions to generate 7 points concentration response curve (CRC).
For each plate to test, one 0.4 μL copy plate and four 0.3 μL copy plates were then stamped into 96-well plates not treated for cell adhesion (Sarstedt—cat.no. 82.1581.001) by acoustic liquid Handling, Echo, at a concentration which was 500 fold the final assay concentration. Stamped plates were stored at −20° C. The final concentrations for the reference compound, MI-503, and the test items were: 2.00E-05, 6.67E-06, 2.22E-06, 7.41E-07, 2.47E-07, 8.23E-08 and 2.74E-08 M.
Cells were plated in 96-well flat bottom microtiter plates at cell density of 15,000 cells/ml for HL-60, 1000 cells/ml for MOLM-13 and 10,000 cell/ml for MV4-11. Cells were treated with 0.2% DMSO (Sigma, D8418, batch n. SHBH4245V) or serial dilutions of compounds (0.027 μM-20 μM) in DMSO (0.2% final concentration). Cells were incubated in a 5% CO2 incubator at 37° C. for 4 days. A CellTiterGlo viability assay (Promega) was employed. Luminescence was read by using VictorV (Perkin Elmer) multilabel plate reader using the standard protocol for luminescence in 96 well plate. The experiment was performed in duplicate.
Data were expressed as % of inhibition compared to the 0.2% DMSO negative control, and was calculated as follows: […]
CRCs were analysed by GraphPad and IC50 values were calculated by non-linear regression using 4 parameter-logistic equation. IC50 (μM) values were reported in the final data table. The curve fittings were performed leaving free all the parameters. Any constrain were reported in the results table.

MV-4-11 = assay: Long term proliferation assay (Table 3A), MV-4-11; assay type: cell-based; settings: Homo sapiens, MV4-11
Protocol: Example 5b: IC50 determination of compounds of invention in various cell lines (Long Term Proliferation Assay)
The following 5 cell lines are used or can be used for the long term proliferation assay.
Compounds of invention are tested in the 5 suspension lines by 14-day long-term proliferation assay.
The compound is tested in 10-pt dose titration (client will determine the starting concentration and the dilution scheme) and the final DMSO concentration is kept at 0.2%.
Vehicle and media control are also included. All treatments are done in triplicate.
3 plates are used for each cell line and 15 plates are used for the 5 cell lines.
• 1) On Day 0, in a flat bottom 96-well plate, add 100 μL of cells per well at the densities optimized. • 2) Prepare compounds in DMSO at 500× final concentration. Dilute the compounds with DMSO at the dilution. • 3) Dilute the compounds in media at 3×final concentration. Add 50 μL of compound or DMSO at 3× final concentration to each well. Final volume in each well is 150 μL, and final concentration of DMSO is 0.2%. Also include 3 untreated control wells, by adding 50 μL of media alone. 4) Incubate plates for 96 hours. • 5) Count the cells using the Acumen, with capabilities for 96-well plates. Pipette cells up and down to mix in each well, and add desired volume of cells to a new flat bottom poly-D-lysine 96-well plate. Add Calcein AM at 1 μM final concentration. Let cells sit at RT for 10 mins followed by a quick spin to get cells settled on the bottom of the wells. Incubate the plate for additional 40 mins in the incubator. Take out the plate and read by Acumen. Calculate the cell numbers taken into account the dilution factors. • 6) Split the master plate. To do this take the total viable cell count calculated using step 5). Take the average of the replicates for each dose in order to be used in splitting the cells. • 7) Use a 96 well V-bottom plate to spin down the cells to remove old media and compound to split the cells. Based on the split ratio place the proper amount of media and cells into the V-bottom plate, and spin the plate at 1100 rpm for 5 minutes. • 8) Following the spin remove the media, careful not to disturb the cellpellet. • 9) Re-suspend pellet in 100 μL fresh media, and add to a new 96-well flat bottom plate. • 10) Add fresh compound, in the same manner as Step 3). • 11) Incubate plates for 72 hours. Repeat steps 5)-10) on Day 7. • 12) Incubate plates for 96 hours. Repeat Step 5)-10) on Day 11. • 13) Incubate 72 hours and repeat step 5) to take a final count. • 14) Data Analysis
To calculate growth for days 4, 7, 11, and 14: • Calculate the split factor for day 4 to 7, day 7 to 11, and day 11-14.

[1] = Homo sapiens, MV4-11, 96 h, read-out: MV4-11 (MLL-AF4) IC50
[2] = Homo sapiens, MV4-11, 96 h, read-out: MV4-11 (MLL-AF4) pIC50 (converted)
[3] = MV-4-11, Day 4, read-out: MV-4-11 Day 4 IC50

IC50 (MV4-11 (MLL-AF4); [1]) | IC50 (MV4-11 (MLL-AF4); [2]) | IC50 (MV-4-11; [3]) | IC50 (MV-4-11; MV-4-11, Day 11, read-out: MV-4-11 Day 11 IC50) | IC50 (MV4-11 (MLL-AF4); read-out: MV4-11 (MLL-AF4) IC50) | SMILES | MV4-11 (MLL-AF4) % max (MV4-11 (MLL-AF4)) | inhibition of cell viability (in words) (MV4-11 (MLL-AF4); up to 20 μM)
490 nM | 490 nM | 490 nM | 257 nM | – | O=C(Nc1ccc(-c2cc3c(N4CCOCC4)ncnc3[nH]2)cc1)Nc1cc(-c2cccnc2)n[nH]1 [Compound 9, 1-{4-[4-(morpholin-4-yl)-7H-pyrrolo[2,3-d]pyrimidin-6-yl]phenyl}-3-[3-(pyridin-3-yl)-1H-pyrazol-5-yl]urea] | 102% | –
200 nM | 282 nM | 280 nM | – | 280 nM | Cn1nc(-c2cccnc2)cc1CC(=O)Nc1ccc(-c2cc3c(N4CCOCC4)ncnc3[nH]2)cc1 [Compound 11, 2-[1-methyl-3-(pyridin-3-yl)-1H-pyrazol-5-yl]-N-{4-[4-(morpholin-4-yl)-7H-pyrrolo[2,3-d]pyrimidin-6-yl]phenyl}acetamide] | 100% | –
430 nM | 427 nM | 430 nM | – | – | O=C(Cc1cc(-c2cccnc2)n[nH]1)Nc1ccc(-c2nc3c(N4CCOCC4)ncnc3[nH]2)cc1 [Compound 12, N-{4-[6-(morpholin-4-yl)-9H-purin-8-yl]phenyl}-2-[3-(pyridin-3-yl)-1H-pyrazol-5-yl]acetamide] | 89% | fully inhibited
